From patent US20230218663A1, “COMPOSITIONS AND METHODS FOR TREATING A SARS-COV-2 INFECTION” (priority 2020, published 2023)
Values joined by “and” are separate entries in the source; they are usually repeats but may differ in a detail not shown here. Equal entries are not always repeated.

Key:
Caco2 cells = test: Cell viability assay (CellTiterGlo), Caco2; format: cell-based, human; conditions: 48 hrs incubation; concentration based on metal content; read-out: CC50 Caco2
Protocol: The CellTiterGlo® luminescent assay (Promega Corporation, Madison, Wis., USA) was performed to detect the cytotoxicity of the selected compounds as previously described^39. Briefly, VeroE6 cells (4×10^4 cells per well) and Caco2 cells (4×10^4 cells per well) were incubated with different concentrations of the individual compound in 96-well plates for 48 hrs, followed by the addition of the substrate and measurement of luminance 10 min later. Ridaura and Au(PEt3)Cl were dissolved in DMSO, and the final percentage of DMSO was kept at 1% in culture medium.

SARS-CoV-2 [1] = format: cell-based; conditions: read-out: EC50 VeroE6
SARS-CoV-2 [2] = test: Viral load reduction assay in VeroE6 cells; format: cell-based
Protocol: Viral load reduction assay was performed on VeroE6 and Caco2 cells, as described previously with modifications^41. Supernatant samples from the infected cells (0.1 MOI) were harvested at 48 hours post-infection (hpi) for qRT-PCR analysis of virus replication. Briefly, 100 μL of viral supernatant were lyzed with 400 μL of AVL buffer and then extracted for total RNA with the QIAamp viral RNA mini kit (Qiagen, Hilden, Germany). Real-time one-step qRT-PCR was used for quantitation of SARS-CoV-2 viral load using the QuantiNova Probe RT-PCR kit (Qiagen) with a LightCycler 480 Real-Time PCR System (Roche) as previously described^15. Each […] mixture contained 10 μL of 2×QuantiNova Probe RT-PCR Master Mix, 1.2 μL of RNase-free water, 0.2 μL of QuantiNova Probe RT-Mix, 1.6 μL each of 10 μM forward and reverse primer, 0.4 μL of 10 μM probe, and 5 μL of extracted RNA as the template. Reactions were incubated at 45° C. for 10 min for reverse transcription, 95° C. for 5 min for denaturation, followed by 45 cycles of 95° C. for 5 s and 55° C. for 30 s. Signal detection and measurement were taken in each cycle after the annealing step. The cycling profile ended with a cooling step at 40° C. for 30 s. The primers and probe sequences are against the RNA-dependent RNA polymerase/Helicase (RdRP/Hel) gene region of SARS-Cov-2 previously described^42.
Cell culture supernatants were collected at 48 hour-post-infection (hpi) for viral RNA extraction and quantitative reverse transcription-polymerase chain reaction (qRT-PCR) as previously described with modifications(13, 14). The primers and probe sequences were against the RNA-dependent RNA polymerase/Helicase (RdRP/Hel) gene region of SARS-CoV-2: forward primer: 5′-[…]-3′ (SEQ ID NO:6); reverse primer: 5′-[…]-3′(SEQ ID NO:7); specific probe: 5′-[…]-IABkFQ-3′(SEQ ID NO:8). The viral load reduction assay experiments were performed in triplicate and repeated twice for confirmation.

[3] = Ex vivo everted gut sac model; format: in vitro ADME, rat
Protocol: Ex vivo everted gut sac model was performed according to a modified method (10, 11). For the preparation of everted gut sac, small intestines were rapidly isolated from rats right after their sacrificing followed by being washed several times with 0.9% saline. Duodenum was segmented of the intestine (˜4 cm) in oxygenated medium [Krebs-Henseleit solution (pH 7.4, 1.25 mM NaHCO3, pH 7.4, 5.9 mM NaCl, 23.5 μM KCl, 60 μM MgSO4, 62.5 μM CaCl2, 60 μM KH2PO4, 550 μM glucose)], gently everted, washed, slid onto a glass rod and fastened with braided silk. Duodenum was clamped at one end and filled with an aliquot of 1 mL fresh oxygenated medium, and subsequently sealed with a second clamp, resulting an everted gut sac with approximately 3 cm in length using braided silk sutures.
The everted gut sacs (n=3 per group) were dialyzed in oxygenated medium supplemented with CBS (200 μM), CBS (200 μM)+1NAC (200 μM), CBS (200 μM)+3NAC (600 μM), CBS (200 μM)+10NAC (2 mM), respectively, at 37° C. Aliquots of 50 μL samples were withdrawn from the gut sacs at different time intervals (15, 30, 45, 60 min) and equal volume of oxygenated medium was supplemented in gut sacs immediately. The length and width of each intestinal segment was measured after the final sample was taken. Bismuth content transported into the gut sacs was measured by ICP-MS as mentioned above.

[4] = In vivo pharmacokinetics and biodistribution in SD rats; parameters: species or system Sprague Dawley rats
Protocol: For the measurement of detailed pharmacokinetics profiles of the optimal NAC combination with CBS identified from the above mice study, rats received a minor surgery of cannulation one day prior to experiment, with a polythene tube (i.d.0.4 mm×o.d. 0.8 mm, Harvard Apparatus, USA) in the left jugular vein, followed by an overnight recovery and fasting. Two group of rats (n=5 per group) were orally administrated with 1-mL aliquot of CBS (150 mg/kg) or CBS (150 mg/kg)+10NAC (610 mg/kg). About 200 μL of rat blood were collected via the jugular vein cannula into a heparinized centrifuge tube at 0.17, 0.33, 0.5, 1, 2, 4, 6, 8, 12, 24-hour post drug administration for respective group. Rats were allowed for free access to food 12 h after drug administrations. All the rats were sacrificed 24-hour post dosing followed by cardiac perfusion with 200-mL saline to collect major organs including spleen, liver, lung, kidney and brain for further analyses. For the digestion of tissues, a modified protocol from US EPA 3050B (USEPA, 1996) was used. Briefly, approximate 0.2˜0.3 g of the respective rat organ samples was placed in 15 ml polypropylene tubes and digested with 1 mL of 69% HNO3 at 65° C. for 16 h, while 100 μL of rat blood was digested with equal volume of 69% HNO3 at 65° C. for 16 h. After being cooled down to room temperature, the samples were diluted to 1% nitric acid to the final volume of 3 mL for further use. To eliminate matrix effect, blood and organs were also collected from untreated rats and digested under identical condition serving as blank control. Standard solutions were prepared by diluting multielement calibration standard of bismuth in the respective blank control of organ and blood, respectively. The bismuth content in each organ or blood sample was then measured by ICP-MS and calculated according to the standard curve in respective blank control. Pharmacokinetic parameters including the peak concentration (Cmax), the area under the concentration-time curve (AUC), the time reaching Cmax (Tmax) were determined through noncompartmental analysis with Phoenix WinNonlin version 6.4 (Pharsight Corporation, Mountain View, Calif., USA).

SARS-CoV-2 [5] = conditions: Caco-2
[6] = oral, CBS 150 mg/kg, NAC 610 mg/kg, bismuth
[7] = oral, CBS 150 mg/kg, NAC 610 mg/kg, bismuth, listed as CBS

Colloidal Bismuth Subcitrate [De-Nol]
CC50 (Caco2 cells): 3740 ± 125 µM | EC50 (SARS-CoV-2 [1]): 4.6 ± 0.4 µM | maximal viral load reduction in VeroE6 cell culture supernatant (SARS-CoV-2 [2]): ~4 logs | maximal viral load reduction in the VeroE6 cell lysate (SARS-CoV-2 [2]): ~2 logs | cumulative bismuth permeated within 60 min ([3]; CBS 200 μM with 1 mol eq. NAC): 30.21 ng/cm2 | cumulative bismuth permeated within 60 min ([3]; CBS 200 μM with 3 mol eq. NAC): 64.98 ng/cm2 | cumulative bismuth permeated within 60 min ([3]; CBS 200 μM with 10 mol eq. NAC): 98.61 ng/cm2 | cumulative bismuth permeated within 60 min ([3]; CBS 200 μM, without NAC): 14.68 ng/cm2 | bismuth accumulation in kidney ([4]; 24 hours after oral dose): 6839.76 ng per tissue | bismuth accumulation in lung ([4]; 24 hours after oral dose): 552.15 ng per tissue | first peak value of blood bismuth level ([4]; at around 0.5 h, single oral dose CBS 150 mg/kg): 277.69 µg/L | AUC0→24 h (±SD) [4, 6]: 2324.20 (±759.76) h · μg/L | Cmax (±SD) [4, 6]: 447.06 ng/mL | AUC0→12 h (±SD) [4, 7]: 1316 h · μg/L and 1316.94 (±474.00) h · μg/L | Tmax (±SD) [4, 7]: 4 h and 2.53(±2.01) h | maximal viral load reduction in Caco2 cell culture supernatant (SARS-CoV-2 [5]): ~4 logs | maximal viral load reduction in the Caco2 cell lysate (SARS-CoV-2 [5]): ~3 logs
